The values below come from patent publication US12691092B2, “Method for reducing cutaneous skin scarring by pre-emptive priming and compounds and compositions for its implementation” (SOS SCIENCE OF SKIN LTD, priority 2020, dated 2026).

In one assay the test system is zone of injury. Conditions: topical EGCG, zonal priming; cited from earlier work.
A further assay concerns MCT and MCC. Description: QRT-PCR of MCT and MCC in scar biopsies. Conditions: week 4, all groups, p<0.05. The class given is in vivo, human. As to the method:
A double-blind randomized placebo-controlled trial was conducted using a temporal punch-biopsy model. The punch biopsy and topical application methodology used in the study is illustrated in FIG. 1, namely showing pre-injury pre-emptive priming (7-days), pre-injury pre-emptive priming (3-days), day of injury (immediate application on day 0), post-injury (delayed 2 weeks post injury) including biopsy time points and time of topical applications. Each group applied both placebo and topical formulations twice daily for the duration of the study until week 8, with only the starting time point differing between groups Participants were split into 4 groups (n=10 in each group) in order to compare different modes (timings) of commencement of the topical application: • Group-1: Pre-emptive Priming (7-days): pre-injury • Group-2: Pre-emptive Priming (3-days): pre-injury • Group-3: Immediate (0-day): day-of-injury • Group-4: Delayed (14-days): post-injury Clinical quantitative devices were used to objectively monitor cutaneous healing at weekly intervals and punch biopsies were performed on day 0 (uninjured skin) and at weeks 4 and 8 for protein and gene expression analyses. […] Excisional skin biopsies in upper arms were evaluated weekly with multiple quantitative devices over an 8-week period. […] MCT, MCC and CKit quantitative measurements are expressed in mm^2.

A further assay has as its system human skin models. Conditions: ex vivo human skin models; cited from earlier work.
A further assay concerns VEGF-A. Description: Gene expression analysis of VEGF-A. In kind it is in vivo, human. Conditions: week 4, groups 1-2 and 4, p<0.05. The protocol: (§1) A double-blind randomized placebo-controlled trial was conducted using a temporal punch-biopsy model. The punch biopsy and topical application methodology used in the study is illustrated in FIG. 1, namely showing pre-injury pre-emptive priming (7-days), pre-injury pre-emptive priming (3-days), day of injury (immediate application on day 0), post-injury (delayed 2 weeks post injury) including biopsy time points and time of topical applications. Each group applied both placebo and topical formulations twice daily for the duration of the study until week 8, with only the starting time point differing between groups Participants were split into 4 groups (n=10 in each group) in order to compare different modes (timings) of commencement of the topical application: • Group-1: Pre-emptive Priming (7-days): pre-injury • Group-2: Pre-emptive Priming (3-days): pre-injury • Group-3: Immediate (0-day): day-of-injury • Group-4: Delayed (14-days): post-injury Clinical quantitative devices were used to objectively monitor cutaneous healing at weekly intervals and punch biopsies were performed on day 0 (uninjured skin) and at weeks 4 and 8 for protein and gene expression analyses. […] Excisional skin biopsies in upper arms were evaluated weekly with multiple quantitative devices over an 8-week period. […]

A further assay concerns CD31. Description: QRT-PCR for CD31. The class given is in vivo, human. Conditions: week 4, all groups. The protocol: as §1
The next assay concerns mast cells (MC). Nature of the assay: Mast cell identification by MCT, MCC and CKit immunohistochemical markers in scar biopsies (double-blind placebo-controlled punch-biopsy trial). The class given is in vivo, human. The protocol:
A double-blind randomized placebo-controlled trial was conducted using a temporal punch-biopsy model. The punch biopsy and topical application methodology used in the study is illustrated in FIG. 1, namely showing pre-injury pre-emptive priming (7-days), pre-injury pre-emptive priming (3-days), day of injury (immediate application on day 0), post-injury (delayed 2 weeks post injury) including biopsy time points and time of topical applications. Each group applied both placebo and topical formulations twice daily for the duration of the study until week 8, with only the starting time point differing between groups Participants were split into 4 groups (n=10 in each group) in order to compare different modes (timings) of commencement of the topical application: • Group-1: Pre-emptive Priming (7-days): pre-injury • Group-2: Pre-emptive Priming (3-days): pre-injury • Group-3: Immediate (0-day): day-of-injury • Group-4: Delayed (14-days): post-injury Clinical quantitative devices were used to objectively monitor cutaneous healing at weekly intervals and punch biopsies were performed on day 0 (uninjured skin) and at weeks 4 and 8 for protein and gene expression analyses. In the trial, topical EGCG and a placebo topical were applied twice daily for the duration of the trial until week 8 with only the starting time points differing between groups. Clinical and experimental analysis involved use of non-invasive devices as well as protein and gene studies. Excisional skin biopsies in upper arms were evaluated weekly with multiple quantitative devices over an 8-week period. Immunohistochemical analyses, mRNA sequencing and QRT-PCR were performed on tissue biopsies. MC identification was performed using mast cell tryptase (MCT), mast cell chymase (MCC) and CKit markers. […] The percentage differences between the change in placebo and EGCG for group-1 compared to group-2 was 58% (p=0.002), group-3 was 53% (p=0.003) and group-4 was 52% (p=0.005). […] The greatest difference was in group-1 compared to group-3 by 26% (p=0.02) and group-4 by 27% (p=0.02). Subsequent QRT-PCR analysis further confirmed down-regulation of MCT and MCC (p<0.05) in EGCG-treated samples at week-4 in all groups. MCT, MCC and CKit quantitative measurements are expressed in mm^2.

Where [1] appears, read: weeks 4 and 8, all groups, p<0.01, topical twice daily.

SMILES strings stand for the structures.

Take `O=C(OC1Cc2c(O)cc(O)cc2OC1c1cc(O)c(O)c(O)c1)c1cc(O)c(O)c(O)c1` (single isomer, unassigned; (-)) [EGCG, (-)-epigallocatechin-3-gallate]: in the assay on zone of injury, the “Scar outcome, immediate application to zone of injury compared with delayed application two-weeks post-wounding” value is “reduced scar thickness and angiogenesis, plus increased hydration and elasticity”. In the assay on MCT and MCC, the “QRT-PCR MCC expression, EGCG-treated samples” value is “down-regulation” and the “QRT-PCR MCT expression, EGCG-treated samples” value is given as “down-regulation”. Also, in the assay with human skin models, the “Effect on scar growth” value was “inhibited growth and induced scar shrinkage”; the “Mast cell (MC) numbers” value is on record as “significantly reduced mast cell (MC) numbers”. The “VEGF-A gene expression, EGCG-treated samples compared to placebo” value with VEGF-A is reported as “significant reductions”. For the same molecule, the “QRT-PCR CD31, EGCG-treated samples compared to placebo” value in the assay on CD31 is “significant down regulation”. The “Resident mast cell population in primed uninjured skin” value with mast cells (MC) (primed uninjured skin prior to injury) is recorded as “reduces the resident mast cell population”. The “MCC: larger difference of group-2 than group-4” value in the assay on mast cells (MC) (week 4, 3-day priming vs delayed, p=0.009) was 29%. Moreover, the “MCT: percentage difference between the change in placebo and EGCG, group-1 compared to group-2” value in the assay on mast cells (MC) (week 4, 7-day pre-injury priming vs 3-day priming, p=0.002) is 58%. For the same molecule, in the assay with mast cells (MC) (week 4, 7-day pre-injury priming vs delayed (14 days), p=0.005), the “MCT: percentage difference between the change in placebo and EGCG, group-1 compared to group-4” value is listed as 52%. Besides, in the assay on mast cells (MC) (week 4, 7-day pre-injury priming vs immediate (day 0), p=0.003), the “MCT: percentage difference between the change in placebo and EGCG, group-1 compared to group-3” value worked out at 53%. In addition, the “MCC: greater difference of group-1 than group-4” value in the assay on mast cells (MC) (week 4, 7-day priming vs delayed, p=0.001) was 41%. Besides, the “CKit: difference of group-1 compared to group-4” value in the assay on mast cells (MC) (week 4, 7-day priming vs delayed, p=0.02) stood at 27%. Moreover, the “MCC: greater difference of group-1 than group-3” value in the assay with mast cells (MC) (week 4, 7-day priming vs immediate, p=0.01) is listed as 29%. Moreover, in the assay on mast cells (MC) (week 4, 7-day priming vs immediate, p=0.02), the “CKit: difference of group-1 compared to group-3” value stood at 26%. Besides, in the assay on mast cells (MC) (setting [1]), the “CKit positive cells, EGCG-treated scars compared to placebo-treated scars” value is “significantly fewer positive cells”; the “MCC positive cells, EGCG-treated scars compared to placebo-treated scars” value is recorded as “significantly fewer positive cells”; the “MCT positive cells, EGCG-treated scars compared to placebo-treated scars” value is reported as “significantly fewer positive cells”.
